Assay results reported in US20170216315A1 (priority 2016, published 2017).
Marks after values point to notes of the source that are not given here.

What was measured:
[1] = system: LXR-α, SREBP-1c, ACC, FAS, ME; assay: Expressions of lipid synthesis-related genes in liver (real-time PCR); type: in vivo, mice; conditions: EK100 1, 5, 10 mg/kg/day vs EtOH group, p<0.05, FIG. 4
Method: C-4 was put into a 0.8 ml RNAlater containing an RNA stabilizer (Qiagen company, United States), and then the commercial kit (E.Z.N.A™ Tissue RNA kit, purchased from Omega Bio-Tek company, United States) was used to extract the mRNA therein. After that, the mRNA sample obtained therefrom was reverse transcribed to provide cDNA, and then specific primers (as shown in Table 2) were used to conduct real-time polymerase chain reaction (real-time PCR) of the cDNA to observe the expression of each gene in the mouse liver, wherein the operation steps of the real-time polymerase chain reaction were as follows: (i) 2 μl of cDNA (50 ng/μl), 5 μl of SYBR Green (Molecular Probes company, United States, Applied Biosystems/Fast SYBR® Green Master Mix), 2 μl of RNase-free water, 1 μl of forward primer, and 1 μl of reverse primer were well mixed and then centrifuged; (ii) the above sample was put into a real-time polymerase chain reaction system (Applied Biosystems/StepOne Real time PCR system) to detect the expression of each gene, wherein the expression of GAPDH was used as the […] control.
It has been known that LXR-α, SREBP-1c, ACC, FAS, ME, etc. are genes related to lipid synthesis, thus, the expressions of the above genes in mouse liver of each group were compared by the analysis method of [Preparation Examples] D-2.

[2] = system: alanine aminotransferase (ALT); assay: Activity of ALT in serum; type: in vivo, mice; conditions: EK100 5 and 10 mg/kg/day (EK100_5X, EK100_10X) vs EtOH group; p<0.05; FIG. 8
Text: It has been known that both aspartate aminotransferase (AST) and alanine aminotransferase (ALT) are amino acid metabolic enzymes, which are widely present in the heart, liver, skeletal muscle, kidney and brain. When cells in organs are injured, AST and ALT will be released into the blood. Therefore, the activities of AST and ALT can be used as the injury markers of the above organs to detect organ injuries, wherein the higher activities of AST and ALT represent that organ injuries are more serious. For example, there is much more ALT in the liver. A higher activity of ALT in the liver would indicate a more serious injury.
To understand the effects of alcohol consumption and ergostatrien-3β-ol intake on the injury conditions of mice organs, mouse serum samples of each group provided in [Preparation Examples] C-2 (200 μl per group) were placed into automatic dry-biochemistry analyzer (Arkray, Inc., Japan, Spotechem™ EZ, SP-4430) with AST/ALT expert analytic test paper (Arkray, Inc., Japan, Spotechem™ II) to detect the activities of AST and ALT.

TNF-α = assay: Concentration of TNF-α in liver (ELISA); type: in vivo, mice; conditions: EK100 1, 5, 10 mg/kg/day vs EtOH group; p<0.05; FIG. 9A
Text: D-3 were taken and diluted with Calibrator Diluent RD 5-17 to ⅓ of the original concentration respectively, and then a Quantikine® Rat TNF-α or a Quantikine® Rat IL-1β commercial kit (purchased from R&D Systems company, United States) was used for the Enzyme-linked immune-sorption assay (ELISA) to measure the amounts of tumor necrosis factor-alpha (TNF-α) and interleukin-1β (IL-1β) therein. […]

male C57BL/6 mice = assay: Amount of glutathione (GSH) in liver homogenate; conditions: for Amount of GSH: liver homogenate, alcoholic liquid diet, 4 weeks

CC(C)[C@@H](C)/C=C/[C@@H](C)[C@H]1CC[C@H]2C3=CCC4C[C@@H](O)CC[C@]4(C)C3=CC[C@]12C (stereo partly shown) [EK100]
Expressions of lipid synthesis-related genes in liver compared to EtOH [1]: significantly decreased
Activity of ALT in serum compared to EtOH [2]: significantly decreased
Concentration of TNF-α in liver compared to EtOH (TNF-α): significantly decreased
Amount of GSH in liver compared to EtOH (male C57BL/6 mice; EK100 1, 5, 10 mg/kg/day vs EtOH group, p<0.05): significantly increased
Amount of GSH (male C57BL/6 mice; EK100_1X: 1 mg/kg/day gavage): 49.08 ± 4.78^b nmol/mg protein
Amount of GSH (male C57BL/6 mice; EK100_5X: 5 mg/kg/day gavage): 71.14 ± 4.17^a nmol/mg protein
Amount of GSH (male C57BL/6 mice; EK100_10X: 10 mg/kg/day gavage): 77.21 ± 2.95^a nmol/mg protein
